Measurements reported in publication PMC11148373, “Cubeb (Piper cubeba L.): nutritional value, phytochemical profiling and dermacosmeceutical properties” (Frontiers in Nutrition, 2024).

Biological target: T1, elastase from porcine pancreas (Sus scrofa, UniProt P00772)
T1 construct: gene CELA1; commercial native porcine pancreatic elastase (Sigma Aldrich)
Assay: N-Succinyl-Ala-Ala-Ala-p-nitroanilide hydrolysis, absorbance at […] nm
Assay type: biochemical
Conditions: read-out: IC50 (μg/mL) / Elastase (converted)

T1 sequence (P00772 27-266): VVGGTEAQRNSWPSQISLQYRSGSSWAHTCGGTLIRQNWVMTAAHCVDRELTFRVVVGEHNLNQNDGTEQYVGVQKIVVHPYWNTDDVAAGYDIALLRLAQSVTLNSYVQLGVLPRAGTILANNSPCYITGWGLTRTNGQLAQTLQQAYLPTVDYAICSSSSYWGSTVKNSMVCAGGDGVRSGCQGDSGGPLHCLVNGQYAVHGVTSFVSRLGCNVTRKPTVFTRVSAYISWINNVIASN

IC50: 505 µM
SMILES: O=C(O[C@@H]1Cc2c(O)cc(O)cc2O[C@@H]1c1cc(O)c(O)c(O)c1)c1cc(O)c(O)c(O)c1 [Epigallocatechin gallate]
